According to ChEMBL document CHEMBL5329205, “Development of novel quinoline-NO donor hybrids inducing human breast cancer cells apoptosis via inhibition of topoisomerase I” (Bioorg Med Chem, 2023):
Active and inactive are the calls of the source. The calls are words filed in the database; no cut-off is given here.

Experiments:
MCF7 [1] = test: Induction of apoptosis in human MCF7 cells assessed as upregulation of cleaved caspase-3 expression incubated for 24 hrs by Western blot analysis; format: functional, cell-based; settings: dose 1-4 µM
[2] = Toxicity in BALB/c mouse xenografted with human MCF7 cells assessed as heart damage at 10 mg/kg, ip administered once every two days for 3 weeks by H and E staining based microscopic analysis; format: organism-based; settings: in vivo, 504 h
MCF7 [3] = test: Induction of apoptosis in human MCF7 cells assessed as late apoptotic cells at 1.5 uM incubated for 48 hrs by Annexin-V/PI staining based flow cytometry analysis (reference value: 0.0%); format: functional
MCF7 [4] = test: Induction of cell cycle arrest in human MCF7 cells assessed as G2 phase cells at 0.75 uM incubated for 24 hrs by PI/RNaseA staining based flow cytometry analysis (reference value: 7.67 %); format: functional
[5] = Toxicity in BALB/c mouse xenografted with human MCF7 cells assessed as lung damage at 10 mg/kg, ip administered once every two days for 3 weeks by H and E staining based microscopic analysis; format: organism-based; settings: in vivo, 504 h
MCF7 [6] = test: Induction of apoptosis in human MCF7 cells assessed as nucleus fragmentation upto 3 uM incubated for 48 hrs by Hoechst-33342 staining based fluorescent microscopic analysis; format: functional, cell-based
MCF7 [7] = test: Antiproliferative activity against human MCF7 cells assessed as inhibition of cell growth incubated for 48 hrs by MTT assay; format: functional, cell-based; settings: MCF7, 48 h
[8] = Toxicity in BALB/c mouse xenografted with human MCF7 cells assessed as kidney damage at 10 mg/kg, ip administered once every two days for 3 weeks by H and E staining based microscopic analysis; format: organism-based; settings: in vivo, 504 h
MCF7 [9] = test: Induction of apoptosis in human MCF7 cells assessed as boundary consolidation upto 3 uM incubated for 48 hrs by Hoechst-33342 staining based fluorescent microscopic analysis; format: functional, cell-based
MCF7 [10] = test: Induction of cell cycle arrest in human MCF7 cells assessed as G1 phase cells at 3 uM incubated for 24 hrs by PI/RNaseA staining based flow cytometry analysis (reference value: 66.08 %); format: functional
MCF7 [11] = test: Induction of apoptosis in human MCF7 cells assessed as total apoptotic cells at 0.75 to 3 uM incubated for 48 hrs by Annexin-V/PI staining based flow cytometry analysis (reference value: 0.3 %); format: functional; settings: dose 0.75-3 µM
MCF7 [12] = test: Induction of apoptosis in human MCF7 cells assessed as necrotic cells at 3 uM incubated for 48 hrs by Annexin-V/PI staining based flow cytometry analysis (reference value: 0.0%); format: functional
MCF7 [13] = test: Induction of apoptosis in human MCF7 cells assessed as early apoptotic cells at 3 uM incubated for 48 hrs by Annexin-V/PI staining based flow cytometry analysis (reference value: 0.3%); format: functional
MCF7 [14] = test: Induction of apoptosis in human MCF7 cells assessed as viable cells at 3 uM incubated for 48 hrs by Annexin-V/PI staining based flow cytometry analysis (reference value: 99.7%); format: functional; settings: read-out: Activity
MCF7 [15] = test: Induction of apoptosis in human MCF7 cells assessed as upregulation of cleaved-PARP expression incubated for 24 hrs by Western blot analysis; format: functional, cell-based; settings: dose 1-4 µM
MCF7 [16] = test: Induction of cell cycle arrest in human MCF7 cells assessed as S phase cells at 0.75 uM incubated for 24 hrs by PI/RNaseA staining based flow cytometry analysis (reference value: 22.2 %); format: functional
[17] = Toxicity in BALB/c mouse xenografted with human MCF7 cells assessed as liver damage at 5 mg/kg, ip administered once every two days for 3 weeks by H and E staining based microscopic analysis; format: organism-based; settings: in vivo, 504 h
[18] = Toxicity in BALB/c mouse xenografted with human MCF7 cells assessed as spleen damage at 5 mg/kg, ip administered once every two days for 3 weeks by H and E staining based microscopic analysis; format: organism-based; settings: in vivo, 504 h
MCF7 [19] = test: Induction of ROS generation in human MCF7 cells at 0.1 uM incubated for 24 hrs by DCFH-DA staining based fluorescent microscopic analysis; format: functional, cell-based
MCF7 [20] = test: Induction of apoptosis in human MCF7 cells assessed as downregulation of Bcl-2 expression incubated for 24 hrs by Western blot analysis; format: functional, cell-based; settings: dose 1-4 µM
MCF7 [21] = test: Induction of apoptosis in human MCF7 cells assessed as upregulation of Bad expression incubated for 24 hrs by Western blot analysis; format: functional, cell-based; settings: dose 1-4 µM
MCF7 [22] = test: Induction of apoptosis in human MCF7 cells assessed as bright blue appearance of cells upto 3 uM incubated for 48 hrs by Hoechst-33342 staining based fluorescent microscopic analysis; format: functional, cell-based
MCF7 [23] = test: Induction of apoptosis in human MCF7 cells assessed as early apoptotic cells at 0.75 uM incubated for 48 hrs by Annexin-V/PI staining based flow cytometry analysis (reference value: 0.3%); format: functional
MCF7 [24] = test: Induction of apoptosis in human MCF7 cells assessed as viable cells at 1.5 uM incubated for 48 hrs by Annexin-V/PI staining based flow cytometry analysis (reference value: 99.7%); format: functional; settings: read-out: Activity
MCF7 [25] = test: Induction of cell cycle arrest in human MCF7 cells assessed as G2 phase cells at 1.5 uM incubated for 24 hrs by PI/RNaseA staining based flow cytometry analysis (reference value: 7.67 %); format: functional
[26] = biological target: T1, DNA topoisomerase 1 (Homo sapiens) (UniProt P11387); test: Inhibition of human DNA topoisomerase I mediated supercoiled DNA relaxation activity incubated for 30 mins by Ged Red staining based agarose gel electrophoresis analysis; settings: dose 20-100 µM
T1 sequence (whole entry): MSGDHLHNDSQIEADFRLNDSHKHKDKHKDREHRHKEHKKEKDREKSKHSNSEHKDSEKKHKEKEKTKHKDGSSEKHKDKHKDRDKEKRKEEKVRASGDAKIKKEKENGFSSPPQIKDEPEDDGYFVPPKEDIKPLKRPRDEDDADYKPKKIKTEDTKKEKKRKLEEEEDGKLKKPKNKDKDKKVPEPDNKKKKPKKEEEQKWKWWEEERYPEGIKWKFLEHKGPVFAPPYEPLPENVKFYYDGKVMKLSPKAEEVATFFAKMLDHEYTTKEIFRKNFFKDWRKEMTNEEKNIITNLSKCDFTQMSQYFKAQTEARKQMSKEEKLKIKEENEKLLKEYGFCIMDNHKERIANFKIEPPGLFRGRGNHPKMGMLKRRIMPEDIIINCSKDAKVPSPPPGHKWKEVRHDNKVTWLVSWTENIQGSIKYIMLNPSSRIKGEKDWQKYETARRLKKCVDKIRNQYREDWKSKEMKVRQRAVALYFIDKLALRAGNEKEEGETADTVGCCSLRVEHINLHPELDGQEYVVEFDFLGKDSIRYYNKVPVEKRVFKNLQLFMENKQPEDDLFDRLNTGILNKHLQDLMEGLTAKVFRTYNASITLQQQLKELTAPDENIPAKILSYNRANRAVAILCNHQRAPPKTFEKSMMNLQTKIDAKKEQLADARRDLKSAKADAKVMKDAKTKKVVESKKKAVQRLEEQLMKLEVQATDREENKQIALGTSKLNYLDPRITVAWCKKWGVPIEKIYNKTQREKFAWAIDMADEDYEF

[27] = Cytotoxicity against human MCF-10A cells assessed as cell growth inhibition measured after 48 hrs by MTT assay; format: toxicity, cell-based
MCF7 [28] = test: Induction of cell cycle arrest in human MCF7 cells assessed as G1 phase cells at 1.5 uM incubated for 24 hrs by PI/RNaseA staining based flow cytometry analysis (reference value: 66.08 %); format: functional

**Q.** With COc1cc(-c2cc(C(=O)OCCCCCOc3no[n+]([O-])c3S(=O)(=O)c3ccccc3)c3ccccc3n2)cc(OC)c1OC as the compound, how does the Activity (MCF7 [1]) read?
**A.** Dose-Dependent Effect

**Q.** And the Activity [2]?
**A.** Non-Toxic

**Q.** What about the Activity (MCF7 [3]) of the same compound?
**A.** 18.1%

**Q.** What about the Activity (MCF7 [4]) of the same compound?
**A.** 10.62%

**Q.** And the Activity [5]?
**A.** Non-Toxic

**Q.** What about the Activity (MCF7 [6]) of the same compound?
**A.** Active

**Q.** And the IC50 (MCF7 [7])?
**A.** 1.45 µM

**Q.** What about the Activity [8] of the same compound?
**A.** Non-Toxic

**Q.** And the Activity (MCF7 [9])?
**A.** Active

**Q.** And the Activity (MCF7 [10])?
**A.** 58.98%

**Q.** What about the Activity (MCF7 [11]) of the same compound?
**A.** 64.3%

**Q.** And the Activity (MCF7 [12])?
**A.** 1.2%

**Q.** What about the Activity (MCF7 [13]) of the same compound?
**A.** 14.3%

**Q.** And the viability at 3 µM (MCF7 [14])?
**A.** 34.4%

**Q.** And the Activity (MCF7 [15])?
**A.** Dose-Dependent Effect

**Q.** And the Activity (MCF7 [16])?
**A.** 22.08%

**Q.** And the Activity [17]?
**A.** Non-Toxic

**Q.** And the Activity [18]?
**A.** Non-Toxic

**Q.** What about the Activity (MCF7 [19]) of the same compound?
**A.** Active

**Q.** And the Activity (MCF7 [20])?
**A.** Dose-Dependent Effect

**Q.** And the Activity (MCF7 [21])?
**A.** Dose-Dependent Effect

**Q.** What about the Activity (MCF7 [22]) of the same compound?
**A.** Active

**Q.** And the Activity (MCF7 [23])?
**A.** 11.9%

**Q.** What about the viability at 1.5 µM (MCF7 [24]) of the same compound?
**A.** 65.4%

**Q.** And the Activity (MCF7 [25])?
**A.** 19.12%

**Q.** And the inhibition [26]?
**A.** Dose-Dependent Effect

**Q.** What about the IC50 at 48 h [27] of the same compound?
**A.** 26.9 µM

**Q.** And the Activity (MCF7 [28])?
**A.** 61.5%
